Test results reported in article PMC5307958 (Scientific Reports, 2017).
“Also recorded” adds a separate entry of the source. Where a SMILES comes first, the peptide text is derived from it. Bridges are numbered along the chain shown (N, C = ends).

Key:
[1] = tested on: mouse inferior colliculus (auditory midbrain); assay: Sound evoked activity within excitatory receptive field (eRF), systemic administration; conditions: for spikes within the eRF, representative eRF: baseline 522 spikes, BF 19.5 kHz
33 mammalian CNS targets = assay: NIMH-PDSP competition binding panel, all targets
Description: (§1) LS3 was screened against a comprehensive panel of CNS-based proteins. Detailed protocols can be found within the US National Institute of Mental Health Psychoactive Drug Screening Program (NIMH PDSP) Assay Protocol Book (version II), by B. L. Roth, March 2013 (available at: http://pdsp.med.unc.edu/PDSP%20Protocols%20II%202013-03-28.pdf). […] Radioactivity in the presence of the LS3 (sample) was calculated with the following equation and expressed as a percent inhibition: % inhibition = (sample CPM – non-specific CPM)/Total CPM – non-specific CPM) × 100. Total binding was measured with no competing ligand. Non-specific binding was measured in the presence of reference compound. The % inhibition by LS3 was measured 4 times for each receptor.

[2] = tested on: slo-1(+) worm BK channel gene expressed in slo-1(null) worms; assay: C. elegans crawl speed, slo-1(+) rescue on slo-1 null background; format: in vivo, Caenorhabditis elegans; conditions: 750 μM LS3, 30 min; transgenic slo-1(+) on slo-1(null) background; vs. slo-1(null): p < 0.001, N = 78–162
Description: (§2) Worms were cultivated at 20 °C as described with OP50 bacteria. Worms cultured on plates contaminated with fungi or other bacteria were excluded from this study. The reference wild-type strain was N2 Bristol. The reference slo-1(null) strain and background for transgenic strains was NM1968, harboring the previously characterized null allele, js379[29]. Multi-site gateway technology (Invitrogen) was used to construct plasmids. […] of the native slo-1 promoter (Pslo-1) and the traditional unc-54 UTR were used in combination with slo-1a(cDNA)::mCherry for a rescue construct. To test rescue with the human BK channel, an hslo(ZERO isoform, cDNA)::mCherry version was constructed. The slo-1(+) and hslo(+) plasmids were injected at a concentration of 20 and 10 ng/μl, respectively. The co-injection reporter PCFJ90 (1.25 ng/μl) was used to ensure proper transformation of the arrays. As such, JPS345 carried vxEx345, an extrachromosomal array containing [Pslo-1::slo-1::mCherry::unc-54UTR,Pmyo-2::mCherry::unc-54UTR]. JPS340 carried […], an extrachromosomal array containing [Pslo-1::hslo::mCherry::unc-54UTR,Pmyo-2::mCherry::unc-54UTR].
Age-matched day one adults were cleaned of bacteria by letting them crawl around on an unseeded plate and then moved into a puddle of NGM or peptide dissolved in NGM on another unseeded plate. […]

Opioid MOR = assay: Competition radioligand binding (NIMH PDSP); conditions: radioligand DAMGO, measured 4 times
Description: as §1

5HT 2A = assay: Competition radioligand binding (NIMH PDSP); conditions: radioligand Ketanserin, measured 4 times
Description: as §1

5HT 1B = assay: Competition radioligand binding (NIMH PDSP); conditions: radioligand GR127543, measured 4 times
Description: as §1

Dopamine D1 = assay: Competition radioligand binding (NIMH PDSP); conditions: radioligand SCH233930, measured 4 times
Description: as §1

NET = assay: Competition radioligand binding (NIMH PDSP); conditions: radioligand Nisoxetine, measured 4 times
Description: as §1

Opioid DOR = assay: Competition radioligand binding (NIMH PDSP); conditions: radioligand DADLE, measured 4 times
Description: as §1

BZP rat brain site = assay: Competition radioligand binding (NIMH PDSP); conditions: radioligand Flunitrazepam, measured 4 times
Description: as §1

Adrenergic Alpha2A = assay: Competition radioligand binding (NIMH PDSP); conditions: radioligand Clonidine, measured 4 times
Description: as §1

5HT 2B = assay: Competition radioligand binding (NIMH PDSP); conditions: radioligand LSD, measured 4 times
Description: as §1

GABAA = assay: Competition radioligand binding (NIMH PDSP); conditions: radioligand Muscimol, measured 4 times
Description: as §1

Histamine H3 = assay: Competition radioligand binding (NIMH PDSP); conditions: radioligand α-methylhistamine, measured 4 times
Description: as §1

Histamine H1 = assay: Competition radioligand binding (NIMH PDSP); conditions: radioligand Pyrilamine, measured 4 times
Description: as §1

Dopamine D2 = assay: Competition radioligand binding (NIMH PDSP); conditions: radioligand N-methylspiperone, measured 4 times
Description: as §1

SERT = assay: Competition radioligand binding (NIMH PDSP); conditions: radioligand Citalopram, measured 4 times
Description: as §1

Adrenergic Alpha1A = assay: Competition radioligand binding (NIMH PDSP); conditions: radioligand Prazosin, measured 4 times
Description: as §1

Sigma 2 = assay: Competition radioligand binding (NIMH PDSP); conditions: radioligand DTG, measured 4 times
Description: as §1

5HT 1A = assay: Competition radioligand binding (NIMH PDSP); conditions: radioligand 8-OH-DPAT, measured 4 times
Description: as §1

hERG = assay: Competition radioligand binding (NIMH PDSP); conditions: human, probe Dofetilide (radioligand), measured 4 times, read-out: % inhibition by 10 µM LS3
Description: as §1

[3] = tested on: wild-type worms (N2 Bristol; BK channel ortholog SLO-1); assay: C. elegans crawl speed, wild-type; format: in vivo, Caenorhabditis elegans; conditions: for crawl speed relative to controls: 30 min pre-incubation in puddle, age-matched day one adults, tracked 1 min, p < 0.001; for effect on crawl speed: wild type, 30 min, p<0.001, N=81-210, planned Student's t-tests
Description: as §2
Age-matched day one adults were cleaned of bacteria by letting them crawl around on an unseeded plate and then moved into a puddle of NGM or peptide dissolved in NGM on another unseeded plate. NGM and peptide treatment groups were always run in tandem to control for behavioral variance. While much shorter than typical drug applications in C. elegans, brief application in liquid was chosen to avoid potential catabolic by-products of incubation on metabolically active E. coli. Higher LS3 concentrations were used to compensate. The puddle was refreshed 1–2 times as needed, but let to fully absorb into the agar by 30 minutes. After 30 minutes, crawl behavior was videoed (Flea2 camera, Point Grey Research, Canada; StreamPix 3, NorPix, Canada). Copper rings restricted movement to a proscribed area. The worms were tracked offline using custom macros (Image-Pro, MediaCybernetics, Rockville, MD) for 1 minute to obtain crawl speed (cm/min). Group means ± SEM for peptide-treated vs. vehicle-treated controls were compared at each concentration with Student’s t-tests. Rescue analysis was completed with two-way ANOVA (SigmaPlot, San Jose, CA). Crawl speeds for the peptide treated groups were also normalized to the performance of yoked controls. Normalized group means±SEM were compared vs. slo-1 null performance by two-way ANOVA.

With `CC(C)C[C@@H]1NC(=O)CNC(=O)[C@H](CCCNC(=N)N)NC(=O)[C@H](CCCNC(=N)N)NC(=O)[C@@H](N)CSSC[C@@H](C(=O)O)NC(=O)[C@H](C(C)C)NC(=O)[C@H](CCC(N)=O)NC(=O)[C@H](C(C)C)NC1=O` [LS3] (H-CRRGLVQVC-OH; disulfide 1-9; N-terminus and C-terminus assumed) the “effect on sound evoked activity in the inferior colliculus” value ([1]; 0.3 mg/kg I.P. LS3) was “suppressed sound evoked activity in the inferior colliculus; also recorded: suppresses sound evoked activity in the IC when administered systemically”, the “spikes within the eRF, representative eRF” value ([1]; systemic (0.3 mg/kg I.P.) LS3, 2 hrs) was 41 spikes and the “spikes within the eRF, representative eRF” value ([1]; systemic (0.3 mg/kg I.P.) LS3, 5 hours) was 37 spikes. The “reduction in spikes within the eRF” value ([1]; systemic (0.3 mg/kg I.P.) LS3, over 2 hours, mean, 47 units from 5 CBA mice) was 85%, the “decrease in sound evoked activity within the receptive field, representative eRF” value ([1]; systemic (0.3 mg/kg I.P.) LS3, over 5 hours) was 93% and the “time course of driven activity” value ([1]; systemic LS3, mean of 49 units, F(32,936) = 7.724 P < 0.0001) was “continued to decline out to 7 hours”. For the same compound, the “interaction with known ligand binding sites on 33 mammalian CNS targets” value (33 mammalian CNS targets; 10 microM LS3) was “does not have high affinity interactions”, the “inhibition of radioligand binding” value (33 mammalian CNS targets; 10 microM LS3, all 33 targets, printed 'substantially less than 50%', each measured 4 times) was “less than 50%” and the Ki (33 mammalian CNS targets; inferred from less than 50% inhibition at 10 microM LS3, array of CNS targets) was greater than 10 µM. For the same compound, the “LS3-induced slowing response (reduction in crawl speed)” value [2] was “rescued”, the “% inhibition by 10 µM LS3” value (Opioid MOR) was 2.2% and the “% inhibition by 10 µM LS3” value (5HT 2A) was 16.2%. For the same compound, the “% inhibition by 10 µM LS3” value (5HT 1B) was 2.8%, the “% inhibition by 10 µM LS3” value (Dopamine D1) was 15.7% and the “% inhibition by 10 µM LS3” value (NET) was 6.7%. For the same compound, the “% inhibition by 10 µM LS3” value (Opioid DOR) was 1.9%, the “% inhibition by 10 µM LS3” value (BZP rat brain site) was 5.1% and the “% inhibition by 10 µM LS3” value (Adrenergic Alpha2A) was 3.2%. For the same compound, the “% inhibition by 10 µM LS3” value (5HT 2B) was 3.2%, the “% inhibition by 10 µM LS3” value (GABAA) was 19.3% and the “% inhibition by 10 µM LS3” value (Histamine H3) was 5.1%. The “% inhibition by 10 µM LS3” value (Histamine H1) was 14.8%, the “% inhibition by 10 µM LS3” value (Dopamine D2) was 20.9% and the “% inhibition by 10 µM LS3” value (SERT) was 0.1%. For the same compound, the “% inhibition by 10 µM LS3” value (Adrenergic Alpha1A) was 11.3%, the “% inhibition by 10 µM LS3” value (Sigma 2) was 24.3% and the “% inhibition by 10 µM LS3” value (5HT 1A) was 11.4%. The inhibition at 10 µM (hERG) was 21.2%, the “crawl speed relative to controls” value ([3]; 250 μM LS3 in NGM) was ~ 85% and the “crawl speed relative to controls” value ([3]; 750 μM LS3 in NGM) was ~ 70%. For the same compound, the “effect on crawl speed” value ([3]; 75 µM LS3 vs. vehicle) was “reduced”, the “effect on crawl speed” value ([3]; 250 µM LS3 vs. vehicle) was “reduced” and the “effect on crawl speed” value ([3]; 750 µM LS3 vs. vehicle) was “reduced”. For the same compound, the “effect on crawl speed / locomotion” value ([3]; wild-type, LS3 in NGM, 30 min bath, WT vs. slo-1(null) at 250 and 750 μM: p < 0.05 and p < 0.001, N = 139–372) was “reduced crawl speed; also recorded: slowed locomotion in a concentration-dependent manner”.
